How the values were obtained:
CYP3A4 = molecular target: T1, CYP3A4 (Homo sapiens, UniProt P08684); test: High density DDI 3 μM cocktail screen in human liver microsomes, midazolam probe; format: in vitro ADME; conditions: human, liver microsomes, probe midazolam, read-out: % inhibition 3A4 @ 3 μM
T1 construct: utilizes human liver microsomes together with isoform-specific clinical drug probes; from tissue; host or cells: human liver microsomes
In short: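 Pooled human liver microsomes incubated with isoform-specific clinical probe substrates as a cocktail (midazolam for CYP3A4), with or without test compound at 3 μM. Metabolite formation followed over time by LC-MS/MS. Inhibition expressed as a single-point percentage.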

[1] = In vitro metabolism rate determination, human liver microsome (HLM) assay; format: in vitro ADME; conditions: human, liver microsomes, read-out: HLM: Clint, app
In short: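 Human liver microsomes at 0.5 nmol cytochrome P450/ml with 1 μM substrate, pre-warmed 5 min at 37° C, reaction started with NADP; samples taken 0–60 min and terminated. Substrate loss measured; first-order rate constant from log-linear regression converted to half-life or Clint (μl/min/mg protein).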

MC4 receptor = MC4 receptor (Homo sapiens, UniProt P32245); test: MC4 EC50 functional potency (protocol E of US2005/0176772 / WO 2005/077935); format: cell-based
Method: The compounds of formula (I) of the present invention have utility as MCR4 agonists in the treatment of various disease states.
MC5 and MC4 EC50 activity was determined as described by assay protocols D and E, respectively, in US2005/0176772 (pages 28-30).

MC3 receptor (MC3R) = molecular target: T2, MC3 receptor (MC3R) (Homo sapiens, UniProt P41968); test: Nle4, D-Phe7-α-MSH inhibition at the MC3 receptor (competition binding, SPA, CHO-CRE MC3R membranes)
T2 construct: expressed in transfected cells; host or cells: CHO-CRE MC3R cells (membranes)
In short: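 Competition binding by SPA used CHO-CRE MC3R membranes on WGA beads with 0.06 nM [125I]Nle4,D-Phe7-α-MSH and 11 half-log competitor concentrations. Buffer was 25 mM HEPES, MgCl2, CaCl2, 1% Pluronic F68, pH7, incubated 12 h at room temperature. Non-specific binding was defined with 100 nM SHU9119, and Ki values were derived.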

T2 sequence (P41968 whole entry): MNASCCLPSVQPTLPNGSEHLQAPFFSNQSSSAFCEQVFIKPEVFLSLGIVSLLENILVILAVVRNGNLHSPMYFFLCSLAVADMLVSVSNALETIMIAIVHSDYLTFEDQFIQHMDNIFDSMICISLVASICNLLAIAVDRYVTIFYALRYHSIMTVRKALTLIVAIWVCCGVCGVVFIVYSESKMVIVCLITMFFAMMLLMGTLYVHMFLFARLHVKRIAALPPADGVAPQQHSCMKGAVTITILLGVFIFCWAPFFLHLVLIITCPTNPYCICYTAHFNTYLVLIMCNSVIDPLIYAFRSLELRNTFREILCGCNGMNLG
T1 sequence (P08684 whole entry, canonical isoform): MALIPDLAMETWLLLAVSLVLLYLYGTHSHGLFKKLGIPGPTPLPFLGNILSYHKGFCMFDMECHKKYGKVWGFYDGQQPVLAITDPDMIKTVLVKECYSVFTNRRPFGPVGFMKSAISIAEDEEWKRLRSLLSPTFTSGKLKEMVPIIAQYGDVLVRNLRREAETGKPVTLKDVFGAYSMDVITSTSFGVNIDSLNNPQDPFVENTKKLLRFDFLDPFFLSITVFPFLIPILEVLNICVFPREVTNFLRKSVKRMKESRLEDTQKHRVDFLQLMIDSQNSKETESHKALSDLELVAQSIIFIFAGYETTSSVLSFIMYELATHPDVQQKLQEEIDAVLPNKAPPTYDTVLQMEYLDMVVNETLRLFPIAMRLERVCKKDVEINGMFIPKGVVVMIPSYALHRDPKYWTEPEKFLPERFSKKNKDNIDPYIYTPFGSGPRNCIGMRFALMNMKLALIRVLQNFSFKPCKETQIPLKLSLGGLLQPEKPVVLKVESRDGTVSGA
Sequence of MC4 receptor (P32245 whole entry): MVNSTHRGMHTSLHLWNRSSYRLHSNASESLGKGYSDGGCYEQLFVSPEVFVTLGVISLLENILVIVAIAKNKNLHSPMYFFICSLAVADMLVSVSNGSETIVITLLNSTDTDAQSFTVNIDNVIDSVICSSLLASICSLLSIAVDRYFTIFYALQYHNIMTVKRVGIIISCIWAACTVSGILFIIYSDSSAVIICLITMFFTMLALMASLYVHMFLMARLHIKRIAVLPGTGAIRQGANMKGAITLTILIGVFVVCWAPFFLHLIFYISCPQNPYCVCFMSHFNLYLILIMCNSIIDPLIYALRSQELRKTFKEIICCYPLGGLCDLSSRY

Row | Structure (SMILES) | inhibition at 3 µM (CYP3A4) | microsomal CLint at 1 μM [1] | EC50 (MC4 receptor) | Ki (MC3 receptor (MC3R))
1 | CNC(=O)N1CCN(C(=O)[C@@H]2CN(c3cccnn3)C[C@H]2c2ccc(F)cc2F)CCCC1c1ccccc1 (mixture of isomers) [Example 73] | 88% | 53 µL/min/mg | 12.2 nM | 981 nM
2 | CS(=O)(=O)N1CCN(C(=O)[C@@H]2CN(c3ccc(C#N)nn3)C[C@H]2c2ccc(F)cc2F)CCCC1c1ccc(Cl)cc1 (mixture of isomers) [Example 76] | 33.5% | 11 µL/min/mg | 50 nM | 960 nM
3 | CS(=O)(=O)N1CCN(C(=O)[C@@H]2CN(c3ccc(=O)[nH]n3)C[C@H]2c2ccc(F)cc2F)CCCC1c1ccc(Cl)cc1 (mixture of isomers) [Example 79] | 51% | 22 µL/min/mg | 17.1 nM | 1110 nM
4 | COc1ccc([C@@H]2CN(c3ccc(=O)n(C)n3)C[C@H]2C(=O)N2CCCC(c3ccc(Cl)cc3)N(S(C)(=O)=O)CC2)c(F)c1 (single isomer, unassigned) [Example 117] | 44.5% | 35.1 µL/min/mg | 34.9 nM | 1150 nM
5 | CCC(=O)N1CCN(C(=O)[C@@H]2CN(C(C)(C)C)C[C@H]2c2ccc(F)cc2F)CCC[C@H]1c1ccc(Cl)cc1 [Example 10] | 37.1% | 22.1 µL/min/mg | 17.3 nM | 6590 nM
6 | CC(C)(C)N1C[C@@H](C(=O)N2CCC[C@@H](c3ccc(Cl)cc3)N(C(=O)C3CCC3)CC2)[C@H](c2ccc(F)cc2F)C1 [Example 14] | 56.1% | 82.8 µL/min/mg | 13.4 nM | 4060 nM
7 | COc1ccc([C@@H]2CN(C(C)(C)C)C[C@H]2C(=O)N2CCC[C@@H](c3ccc(Cl)cc3)N(C(C)=O)CC2)c(F)c1 [Example 70] | 36% | 28.3 µL/min/mg | 20.6 nM | 5880 nM
8 | CC(=O)N1CCN(C(=O)[C@@H]2CN(c3ccc(C#N)nn3)C[C@H]2c2ccc(Cl)cn2)CCC[C@H]1c1ccc(Cl)cc1 [Example 72] | 20.4% | 13 µL/min/mg | 26.1 nM | 141 nM
9 | CS(=O)(=O)N1CCN(C(=O)C2CN(c3ccc(=O)[nH]n3)CC2c2ccc(F)cc2F)CCCC1c1ccc(F)cc1 (centres unmarked) [Example 78] | 49% | 54 µL/min/mg | 40.3 nM | 3220 nM
10 | COC(=O)N1CCN(C(=O)[C@@H]2CN(C(C)(C)C)C[C@H]2c2ccc(OC)cc2F)CCCC1c1ccc(Cl)cc1 (some centres unmarked) [Example 91] | 33% | 46.9 µL/min/mg | 20.2 nM | 4300 nM

The next molecules have a lower EC50 (MC4 receptor) than those just listed; values first:

Row | inhibition at 3 µM (CYP3A4) | microsomal CLint at 1 μM [1] | EC50 (MC4 receptor) | Ki (MC3 receptor (MC3R)) | Structure (SMILES)
11 | 83% | 143 µL/min/mg | 7.12 nM | 715 nM | CCCC(=O)N1CCN(C(=O)[C@@H]2CN(c3cccnn3)C[C@H]2c2ccc(F)cc2F)CCCC1c1ccccc1 (mixture of isomers) [Example 101]
12 | 53.8% | 102 µL/min/mg | 9.79 nM | 1540 nM | CC(=O)N1CCN(C(=O)[C@@H]2CN(c3cccnn3)C[C@H]2c2ccc(F)cc2F)CCCC1c1ccccc1 (mixture of isomers) [Example 103]
13 | 54.2% | 13.5 µL/min/mg | 1.12 nM | 89.5 nM | CC(=O)N1CCN(C(=O)[C@@H]2CN(c3ccc4nncn4n3)C[C@H]2c2ccc(Cl)cn2)CCC[C@H]1c1ccc(Cl)cc1 [Example 6, 6-[(3S,4S)-3-{[4-acetyl-5S-(4-chlorophenyl)-1,4-diazocan-1-yl]carbonyl}-4-(5-chloropyridin-2-yl)pyrrolidin-1-yl][1,2,4]triazolo[4,3-b]pyridazine]
14 | 53.5% | 23.6 µL/min/mg | 6.73 nM | 4090 nM | CC(C)C(=O)N1CCN(C(=O)[C@@H]2CN(C(C)(C)C)C[C@H]2c2ccc(F)cc2F)CCC[C@H]1c1ccc(Cl)cc1 [Example 11]
15 | 64.4% | 57.4 µL/min/mg | 10.6 nM | 3380 nM | CC(C)(C)C(=O)N1CCN(C(=O)[C@@H]2CN(C(C)(C)C)C[C@H]2c2ccc(F)cc2F)CCC[C@H]1c1ccc(Cl)cc1 [Example 15]
16 | 50.2% | 18.1 µL/min/mg | 5.46 nM | 386 nM | CC(C)C(=O)N1CCN(C(=O)[C@@H]2CN(C(C)(C)C)C[C@H]2c2ccc(Cl)cn2)CCC[C@H]1c1ccc(Cl)cc1 [Example 20, 1-{[(3S,4S)-1-tert-butyl-4-(5-chloropyridin-2-yl)pyrrolidin-3-yl]carbonyl}-5S-(4-chlorophenyl)-4-isobutyryl-1,4-diazocane]
17 | 54.2% | 20.5 µL/min/mg | 2.99 nM | 187 nM | COC(=O)N1CCN(C(=O)[C@@H]2CN(c3ccc(=O)n(C)n3)C[C@H]2c2ccc(F)cc2F)CCC[C@@H]1c1ccc(Cl)cc1 [Example 56]
18 | 54.2% | 20.5 µL/min/mg | 2.99 nM | 187 nM | COC(=O)N1CCN(C(=O)[C@@H]2CN(c3ccc(=O)n(C)n3)C[C@H]2c2ccc(F)cc2F)CCC[C@H]1c1ccc(Cl)cc1 [Example 66, methyl (8S-4-chlorophenyl)-4-{[(3S,4R)-4-(2,4-difluorophenyl)-1-(1-methyl-6-oxo-1,6-dihydropyridazin-3-yl)pyrrolidin-3-yl]carbonyl}-1,4-diazocane-1-carboxylate]
19 | 29.5% | 21.4 µL/min/mg | 7.73 nM | 162 nM | COc1ccc([C@@H]2CN(c3ccc(C#N)nn3)C[C@H]2C(=O)N2CCC[C@@H](c3ccc(Cl)cc3)N(C(C)=O)CC2)c(F)c1 [Example 67]
20 | 29.5% | 13.7 µL/min/mg | 4.3 nM | 308 nM | COc1ccc([C@@H]2CN(c3ccc(=O)[nH]n3)C[C@H]2C(=O)N2CCC[C@@H](c3ccc(Cl)cc3)N(C(C)=O)CC2)c(F)c1 [Example 68, 6-[(3S,4R)-3-{[4-acetyl-5S-(4-chlorophenyl)-1,4-diazocan-1-yl]carbonyl}-4-(2-fluoro-4-methoxyphenyl)pyrrolidin-1-yl]pyridazin-3(2H)-one]
21 | 53.8% | 11.7 µL/min/mg | 1.83 nM | 230 nM | COC(=O)N1CCN(C(=O)[C@@H]2CN(c3ccc(=O)[nH]n3)C[C@H]2c2ccc(OC)cc2F)CCC[C@@H]1c1ccc(Cl)cc1 [Example 90, methyl 8R-(4-chlorophenyl)-4-{[(3S,4R)-4-(2-fluoro-4-methoxyphenyl)-1-(6-oxo-1,6-dihydropyridazin-3-yl)pyrrolidin-3-yl]carbonyl}-1,4-diazocane-1-carboxylate]
22 | 48% | 23.2 µL/min/mg | 1.83 nM | 178 nM | COC(=O)N1CCN(C(=O)[C@@H]2CN(c3ccc(=O)n(C)n3)C[C@H]2c2ccc(OC)cc2F)CCC[C@H]1c1ccc(Cl)cc1 [Example 118]
23 | 54.5% | 18.8 µL/min/mg | 8.53 nM | 900 nM | COC(=O)N1CCN(C(=O)[C@@H]2CN(c3ccc(=O)n(C)n3)C[C@H]2c2ccc(OC)cc2F)CCC[C@@H]1c1ccc(Cl)cc1 [Example 119, methyl 8R-(4-chlorophenyl)-4-{[(3S,4R)-4-(2-fluoro-4-methoxyphenyl)-1-(1-methyl-6-oxo-1,6-dihydropyridazin-3-yl)pyrrolidin-3-yl]carbonyl}-1,4-diazocane-1-carboxylate]

From patent US8592403B2, “Diazepine and diazocane compounds as MC4 agonists” (Pfizer Limited, priority 2008, dated 2013)
